# According to ChEMBL document CHEMBL5236643, “Discovery and characterization of orally bioavailable 4-chloro-6-fluoroisophthalamides as covalent PPARG inverse-agonists” (Bioorg Med Chem, 2023):
# Calls of active or inactive are those of the source. No cut-off for these calls is given here.
# Legend:
# [1] = molecular target: T1, Peroxisome proliferator-activated receptor alpha (Homo sapiens, UniProt Q07869); test: Agonist activity at human PPARalpha expressed in CHO cells co-expressing GAL4-NHR-LBD assessed as transcriptional activation preincubated for 6 hrs followed by luciferin addition by luminescence method; assay type: cell-based
# T1 sequence (Q07869 whole entry): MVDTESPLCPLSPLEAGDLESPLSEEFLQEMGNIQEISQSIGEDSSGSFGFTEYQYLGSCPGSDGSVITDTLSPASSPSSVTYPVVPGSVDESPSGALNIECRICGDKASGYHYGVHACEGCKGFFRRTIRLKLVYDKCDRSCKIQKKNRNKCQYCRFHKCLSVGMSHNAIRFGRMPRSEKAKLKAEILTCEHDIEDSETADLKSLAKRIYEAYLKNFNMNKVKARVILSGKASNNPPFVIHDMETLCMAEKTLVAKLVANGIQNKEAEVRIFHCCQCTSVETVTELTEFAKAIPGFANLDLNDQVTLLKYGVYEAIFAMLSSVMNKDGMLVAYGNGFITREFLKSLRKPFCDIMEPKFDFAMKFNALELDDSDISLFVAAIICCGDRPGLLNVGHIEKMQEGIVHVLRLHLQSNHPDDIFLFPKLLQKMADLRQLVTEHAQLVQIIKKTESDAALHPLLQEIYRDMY
# [2] = molecular target: T2, Peroxisome proliferator-activated receptor gamma (Mus musculus) (UniProt P37238); test: Inverse agonist activity at PPARgamma in NMRI-nu/nu mouse assessed as reduction in Fabp4 mRNA expression in adipose tissue at 100 mg/kg for 3 days and measured 6 hrs last dose by qPCR analysis; assay type: organism-based; conditions: time 3.0 day
# T2 sequence (whole entry): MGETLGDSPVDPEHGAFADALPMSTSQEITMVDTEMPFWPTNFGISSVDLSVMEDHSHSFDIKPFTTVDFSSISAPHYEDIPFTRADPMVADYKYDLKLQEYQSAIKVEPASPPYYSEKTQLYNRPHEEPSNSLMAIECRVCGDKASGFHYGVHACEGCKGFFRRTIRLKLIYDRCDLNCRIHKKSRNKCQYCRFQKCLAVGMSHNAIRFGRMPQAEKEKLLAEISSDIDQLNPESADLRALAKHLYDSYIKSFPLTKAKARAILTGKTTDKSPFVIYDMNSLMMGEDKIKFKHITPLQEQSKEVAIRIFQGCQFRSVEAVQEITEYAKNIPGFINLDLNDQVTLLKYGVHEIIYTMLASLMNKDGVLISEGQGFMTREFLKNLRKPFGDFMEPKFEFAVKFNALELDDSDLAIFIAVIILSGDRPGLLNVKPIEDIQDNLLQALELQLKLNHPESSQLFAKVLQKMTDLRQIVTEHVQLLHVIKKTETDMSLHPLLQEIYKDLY
# [3] = molecular target: T3, Peroxisome proliferator-activated receptor delta (Homo sapiens, UniProt Q03181); test: Inverse agonist activity at human PPARdelta expressed in CHO cells co-expressing GAL4-NHR-LBD assessed as transcriptional repression preincubated for 6 hrs followed by luciferin addition by luminescence method; assay type: cell-based
# T3 sequence (Q03181 whole entry): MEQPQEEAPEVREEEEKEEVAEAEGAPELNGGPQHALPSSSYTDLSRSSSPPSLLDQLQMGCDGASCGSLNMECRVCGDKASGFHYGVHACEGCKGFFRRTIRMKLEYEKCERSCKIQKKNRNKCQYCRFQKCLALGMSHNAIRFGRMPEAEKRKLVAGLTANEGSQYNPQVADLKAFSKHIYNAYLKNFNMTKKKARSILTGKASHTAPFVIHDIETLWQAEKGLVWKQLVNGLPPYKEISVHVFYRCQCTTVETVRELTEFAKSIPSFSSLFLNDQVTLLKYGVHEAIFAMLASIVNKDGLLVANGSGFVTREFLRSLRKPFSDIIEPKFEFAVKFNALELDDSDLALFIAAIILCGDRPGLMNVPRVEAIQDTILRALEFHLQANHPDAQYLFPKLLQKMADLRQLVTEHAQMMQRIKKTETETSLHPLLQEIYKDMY
# [4] = molecular target: T4, Peroxisome proliferator-activated receptor gamma (Homo sapiens, UniProt P37231); test: Inverse agonist activity at GST tagged human PPARgamma LBD (231 to 505 residues) expressed in Escherichia coli BL21(DE3) assessed as recruitment of fluorescein labeled corepressor NCOR2 Smrt-ID2 peptide to PPARgamma LBD incubated for 24 hrs by LanthaScreen TR-FRET assay
# T4 sequence (P37231 whole entry): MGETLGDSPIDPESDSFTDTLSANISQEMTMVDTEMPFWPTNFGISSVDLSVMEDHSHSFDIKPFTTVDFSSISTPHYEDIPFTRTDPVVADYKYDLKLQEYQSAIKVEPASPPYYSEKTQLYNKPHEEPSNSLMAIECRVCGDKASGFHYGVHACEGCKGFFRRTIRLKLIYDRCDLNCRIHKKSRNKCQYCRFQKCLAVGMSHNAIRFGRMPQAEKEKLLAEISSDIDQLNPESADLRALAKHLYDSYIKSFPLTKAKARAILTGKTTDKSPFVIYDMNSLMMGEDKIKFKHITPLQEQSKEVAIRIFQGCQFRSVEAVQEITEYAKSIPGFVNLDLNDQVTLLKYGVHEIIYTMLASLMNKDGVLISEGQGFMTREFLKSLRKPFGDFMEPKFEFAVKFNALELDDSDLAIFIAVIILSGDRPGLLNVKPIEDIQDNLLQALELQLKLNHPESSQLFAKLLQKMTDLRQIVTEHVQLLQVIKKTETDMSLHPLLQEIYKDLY
# [5] = Antiproliferative activity against human UM-UC-9 assessed as inhibition of cell proliferation measured after 7 days by IncuCyte live-cell imaging assay; conditions: UM-UC-9, 168 h
# [6] = Antiproliferative activity against human UM-UC-9 assessed as inhibition of cell proliferation by measuring maximum efficacy after 7 days by IncuCyte live-cell imaging assay; assay type: functional; conditions: UM-UC-9, 168 h, time 7 day
# [7] = molecular target: T4, Peroxisome proliferator-activated receptor gamma; test: Inverse agonist activity at human PPARgamma in human RT112/84 transfected with NLuc-fused FABP4 assessed as reduction in PPARgamma transactivation incubated for 6 to 18 hrs by Nano-Glo luciferase assay; assay type: cell-based
# [8] = Stability of compound in GSH at pH 7.4 assessed as parent compound remaining at 10 mM and measured after 4 hrs by HPLC-UV analysis; assay type: physicochemical; conditions: GSH solution, read-out: Stability
# [9] = Stability of compound in cysteine at pH 7.4 assessed as parent compound remaining at 10 mM and measured after 1 hrs by HPLC-UV analysis; assay type: physicochemical; conditions: cysteine solution, read-out: Stability
# [10] = Stability of compound in cysteine at pH 7.4 assessed as parent compound remaining at 10 mM and measured after 2 hrs by HPLC-UV analysis; assay type: physicochemical; conditions: cysteine solution, read-out: Stability
# [11] = Clearance in Wistar rat at 0.3 mg/kg,iv measured upto 24 hrs by HPLC-MS/MS analysis; assay type: ADME, organism-based; conditions: in vivo
# [12] = molecular target: T5, Nuclear receptor subfamily 1 group I member 2 (Homo sapiens, UniProt O75469); test: Transactivation of human PXR in human HepG2 cells co-expressing luciferase gene under control of CYP3A4 promoter assessed as increase in luciferase activity incubated for 24 hrs by luminescence based analysis; assay type: ADME, cell-based
# T5 sequence (O75469 whole entry): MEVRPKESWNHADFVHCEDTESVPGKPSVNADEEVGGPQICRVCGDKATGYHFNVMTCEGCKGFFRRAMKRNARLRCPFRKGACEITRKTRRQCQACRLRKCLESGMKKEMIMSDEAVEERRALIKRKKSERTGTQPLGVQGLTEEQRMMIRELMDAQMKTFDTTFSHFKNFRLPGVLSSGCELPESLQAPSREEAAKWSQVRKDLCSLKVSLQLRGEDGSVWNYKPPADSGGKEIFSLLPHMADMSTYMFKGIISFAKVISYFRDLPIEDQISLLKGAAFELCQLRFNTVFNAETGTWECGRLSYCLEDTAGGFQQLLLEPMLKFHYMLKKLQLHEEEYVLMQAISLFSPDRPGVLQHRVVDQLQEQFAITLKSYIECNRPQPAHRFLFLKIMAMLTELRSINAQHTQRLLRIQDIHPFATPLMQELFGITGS
# [13] = Stability in rat hepatocytes assessed as intrinsic clearance at 1 uM incubated for 1 hr by HPLC-MS/MS analysis; assay type: ADME, cell-based, Hepatocyte; conditions: read-out: CLH (converted)
# [14] = Volume of distribution at steady state in Wistar rat at 0.3 mg/kg,iv measured upto 24 hrs by HPLC-MS/MS analysis; assay type: ADME, organism-based; conditions: in vivo, read-out: Vdss
# [15] = Apparent permeability across basolateral to apical side in human Caco-2 cells at 2 uM incubated for 2 hrs by LC-MS/MS analysis; assay type: ADME, cell-based
# [16] = Stability of compound in cysteine at pH 7.4 assessed as parent compound remaining at 10 mM and measured after 24 hrs by HPLC-UV analysis; assay type: physicochemical; conditions: cysteine solution, read-out: Stability
# [17] = Half life in Wistar rat at 0.3 mg/kg,iv measured upto 24 hrs by HPLC-MS/MS analysis; assay type: ADME, organism-based; conditions: in vivo
# [18] = Tmax in NMRI-nu/nu mouse at 100 mg/kg,po measured upto 24 hrs by HPLC-MS/MS analysis; assay type: ADME, organism-based; conditions: in vivo
# [19] = Cmax in NMRI-nu/nu mouse at 100 mg/kg,po measured upto 24 hrs by HPLC-MS/MS analysis; assay type: ADME, organism-based; set-up: time < 24 hrs, dose 100 mg/kg, route po; conditions: in vivo
# [20] = Stability of compound in GSH at pH 7.4 assessed as parent compound remaining at 10 mM and measured after 24 hrs by HPLC-UV analysis; assay type: physicochemical; conditions: GSH solution, read-out: Stability
# [21] = AUClast in Wistar rat at 0.3 mg/kg,iv measured upto 24 hrs by HPLC-MS/MS analysis; assay type: ADME, organism-based; set-up: dose 0.3 mg/kg, time < 24 hrs, route iv; conditions: in vivo
# [22] = Thermodynamic solubility of compound at pH 6.5 PBS buffer; assay type: physicochemical; conditions: read-out: Therm_solubility
# [23] = Stability of compound in GSH at pH 7.4 assessed as parent compound remaining at 10 mM and measured after 2 hrs by HPLC-UV analysis; assay type: physicochemical; conditions: GSH solution, read-out: Stability
# [24] = Stability of compound in GSH at pH 7.4 assessed as parent compound remaining at 10 mM and measured after 1 hrs by HPLC-UV analysis; assay type: physicochemical; conditions: GSH solution, read-out: Stability
# [25] = Stability of compound in cysteine at pH 7.4 assessed as parent compound remaining at 10 mM and measured after 4 hrs by HPLC-UV analysis; assay type: physicochemical; conditions: cysteine solution, read-out: Stability
# [26] = Microsomal stability in human liver microsomes assessed as intrinsic clearance at 1 uM measured upto 60 mins in presence of NADPH by HPLC-MS/MS analysis; assay type: ADME, Microsome; conditions: read-out: CLH (converted)
# [27] = AUClast in NMRI-nu/nu mouse at 100 mg/kg,po measured upto 24 hrs by HPLC-MS/MS analysis; assay type: ADME, organism-based; set-up: time < 24 hrs, dose 100 mg/kg, route po; conditions: in vivo
structure (smiles),measurement,setting,value
Cc1c(C)n(Cc2ccc(Cl)c(O[C@@H](C)C(=O)O)c2)c2ccc(C(=O)N[C@@H](C)c3ccc(C(C)(C)C)cc3)cc12,IC50,[1],935 nM
same,Activity,[2],inactive
same,IC50,[3],9 µM
COCCOCc1cc(F)ccc1CNC(=O)c1cc(C(=O)Nc2ccc(C(F)(F)F)cc2C)c(Cl)cc1F,EC50,[4],31 nM
Cc1cccnc1NC(=O)c1cc(C(=O)NCc2ccc(F)c(F)c2)c(F)cc1Cl,IC50,[5],695 nM
same,EC50,[4],500 nM
same,Emax,[6],108%
same,IC50,[7],91 nM
Cc1cccc(-c2nc3cc(NC(=O)c4cc(C(=O)NCc5ccc(F)c(F)c5)c(F)cc4Cl)ccc3o2)c1,IC50,[5],18.7 nM
same,EC50,[4],230 nM
same,Emax,[6],93%
O=C(NCc1ccc(F)c(F)c1)c1cc(C(=O)Nc2ccccn2)c(Cl)cc1F,EC50,[4],110 nM
same,Emax,[6],100%
O=C(NCc1ccc(F)c(F)c1)c1ccc(Cl)c(C(=O)Nc2ccccc2)c1,EC50,[4],1750 nM
same,Emax,[6],103%
Cc1ccccc1CNC(=O)c1ccc(Cl)c(C(=O)Nc2ccccc2)c1,EC50,[4],1770 nM
same,IC50,[7],1040 nM
Cc1cc(N2CCOCC2)cnc1NC(=O)c1cc(C(=O)NCc2ccc(F)c(F)c2)c(F)cc1Cl,IC50,[5],98.3 nM
same,"remaining at 4 h, 10000 µM",[8],100%
same,"remaining at 1 h, 10000 µM",[9],100%
same,Activity,[2],inactive
same,"remaining at 2 h, 10000 µM",[10],100%
same,clearance,[11],46.7 mL/min/kg
same,IC50,[12],> 49.8 µM
same,CLint scaled at 1 µM,[13],42.5 mL/min/kg
same,Vd,[14],0.84 L/kg
same,"Papp B→A at 2 h, 2 µM",[15],10.9 ×10⁻⁶ cm/s
same,"remaining at 24 h, 10000 µM",[16],100%
same,half-life,[17],12.6 min
same,Tmax,[18],7 h
same,Cmax,[19],73 nM
same,"remaining at 24 h, 10000 µM",[20],100%
same,AUClast,[21],0.35 kg·h/L
same,solubility thermodynamic,[22],1.6 µg/mL
same,"remaining at 2 h, 10000 µM",[23],100%
same,"remaining at 1 h, 10000 µM",[24],100%
same,"remaining at 4 h, 10000 µM",[25],100%
same,CLint scaled at 1 µM,[26],14.7 mL/min/kg
same,Emax,[6],99%
same,AUC(0-t) at 24 h,[27],520 ng·h/mL
Cc1cc(C(=O)NCc2ccccc2)cc(C(=O)Nc2ccccc2)c1Cl,EC50,[4],> 33000 nM
same,IC50,[7],> 5000 nM
